Values quoted from earlier work, collected in patent publication US12336975B2, “Composition and methods for treatment or prophylaxis of coronavirus and cancers” ([…], priority 2020, dated 2025).

Tested on: COVID-19
Settings: preventive and treatment approach for COVID-19

CCN(CCO)CCCC(C)Nc1ccnc2cc(Cl)ccc12 (centres unmarked) [hydroxychloroquine]
efficacy against COVID-19: no effective results
reported side effect rate: 40.1%
